Assay [1] has as its system NIH3T3 cells expressing constitutively active RET MEN2A (RETC634 mutation). The conditions noted are these: for % of cell decrease: SALT I 500 nM, 9 days. How it is done: The RETC634 mutation is the most common germline mutation of the RET kinase occurring in 85% of multiple endocrine neoplasias type 2A. The effect of SALT I on growth of NIH3T3 cells stably expressing a constitutively active form of the RET kinase (RETC634 mutation) is investigated.
NIH3T3 cells expressing constitutively active RET MEN2A are allowed to plate overnight in 6-well plates. They are then grown in the presence of 1 or 5% serum with SALT I 500 nM or with a vehicle solvent (control) for 9 days, with media changes every 3 days. Cells are counted after harvesting with EDTA/trypsin solution on day 9 after initiation of treatments.

In assay [2] the test system is RET/PTC3. The conditions noted are these: 100 nM SALT I; 25 min at room temperature; γP32-ATP.
Description: Cell Line: PCCL3, a rat thyroid cell line, is maintained in H4 complete medium consisting of Coon's medium/F12 high zinc supplemented with 5% FBS, 0.3 mg/ml L-glutamine, 1 mU/ml TSH, 10 μg/ml insulin, 5 μg/ml apo-transferrin, 10 nM hydrocortisone, and penicillin/streptomycin. […] Stable transfections are performed first to establish clonal lines constitutively expressing the transactivator rtTA (composed of a fusion of the rtetR DNA binding domain and the VP16 activation domain). Individual rtTA-expressing clones are then explored for doxycyclin-inducible expression by transient transfection with a luciferase reporter construct under control of a tet-operator.
Confluent T-75 flasks of RET/PTC3 (PCCL3) cells incubated with or without doxycycline for 24 hours are washed with ice cold PBS containing 0.2 mM sodium ortho-vanadate. […] After the second wash, the reactions are boiled in 35 μl Laemmli buffer for 10 min, the proteins are subjected to SDS-PAGE (7.5%) and their phosphorylation measured by PhosphoImager densitrometry (Molecular Dynamics, Sunnyvale, Calif.) after transfer to nitrocellulose membranes. Protein loading is then normalized to total RET kinase protein determined by Western blot analysis using either the goat polyclonal anti-RET kinase antibody (Santa Cruz) or a mouse monoclonal (University of Cincinnati).
For assay [3], the system named is PLCγ phosphorylation by RET/PTC. The conditions noted are these: 250 nM SALT I for 24 h; in comparison with samples without SALT I.
Description: To further explore the effect of SALT I on RET kinase activity, pretreatment with SALT I on PLCγ phosphorylation is examined.
Ret-PTC3 cells are seeded at 10^5 cells/well in 6-well Corning plates. After 3 days, cells are treated with or without doxycycline in the presence of 250 nM of SALT I for 24 h. Cells are rinsed twice with cold (phosphate buffered saline) PBS containing 0.1 mM sodium orthovanadate, and left for 20 minutes in ice-cold RIPA buffer shaking gently at 4° C. Cell lysates are collected by centrifugation at 10,600 g for 20 min at 4° C. Protein assays are performed on aliquots of supernatants by the Coomassie Blue assay (Pierce, Rockford, Ill.). Western blot analysis are performed by running 100 μg of protein on SDS PAGE (5%), transfer to nitrocellulose membrane and probing initially with anti-phospho PLCγ antibody (Cell Signaling) and then with anti-PLCγ (Cell Signaling) for normalization.

Molecules are shown by their SMILES. Read-outs that look alike come from different tables or passages of the source.

Take `CS(=O)(=O)O.Cc1ccc(NC(=O)c2ccc(CN3CCN(C)CC3)cc2)cc1Nc1nccc(-c2cccnc2)n1` [SALT I]: the entries for the “% of cell decrease” value in assay [1] (1% serum) and in assay [1] (5% serum) were 42% and 15%, respectively. In addition, the “growth of RET kinase-transformed NIH3T3 fibroblasts” value in assay [1] (result in words) was “inhibits the growth”. In addition, in assay [2], the “inhibition of autophosphorylation of RET/PTC3” value is reported as 40%. Moreover, in assay [3], the “inhibition of phosphorylation of PLCγ” value stood at 28%.

The values above are taken from US20070265274A1, “4-(4-METHYLPIPERAZIN-1-YLMETHYL)-N-[4-METHYL-3-(4-PYRIDIN-3-YL)PYRIMIDIN-2-YLAMINO)PHENYL]-BENZAMIDE FOR TREATING MUTATED-RET KINASE ASSOCIATED DISEASES” (priority 2002, published 2007).
